According to patent publication US9963445B2, “Chemical compounds” (SYNGENTA PARTICIPATIONS AG, priority 2013, dated 2018):

Key:
Assay type in all cases: in vivo
[1] = test system: Amaranthus retroflexus; assay: Pre-emergence herbicidal activity, glasshouse pot test; details: pre-emergence spray, rate 1000 g/ha, evaluated after 13 days, scale 0-5
Procedure, shortened: (§1)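 Sown pots sprayed pre-emergence (day 1), acetone/water + 0.5% Tween 20 vehicle. Damage rated 0–5 at 13 days.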

[2] = test system: Setaria faberi; assay: as above; details: pre-emergence spray, rate 1000 g/ha, evaluated after 13 days, scale 0-5
Procedure, shortened: as §1

[3] = test system: Abutilon theophrasti; assay: as above; details: pre-emergence spray, rate 1000 g/ha, evaluated after 13 days, scale 0-5
Procedure, shortened: as §1

[4] = test system: Echinochloa crus-galli; assay: as above; details: pre-emergence spray, rate 1000 g/ha, evaluated after 13 days, scale 0-5
Procedure, shortened: as §1

[5] = test system: zea mays; assay: as above; details: pre-emergence spray, rate 1000 g/ha, evaluated after 13 days, scale 0-5
Procedure, shortened: as §1

[6] = test system: Alopecurus myosuroides; assay: as above; details: pre-emergence spray, rate 1000 g/ha, evaluated after 13 days, scale 0-5
Procedure, shortened: as §1

[7] = test system: Amaranthus retroflexus; assay: Post-emergence herbicidal activity, glasshouse pot test; design: key: 0 = no damage to plant, 5 = total damage to plant; details: Application post-emergence, rate 1000 g/ha, evaluated after 13 days
Procedure, shortened: (§2)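 Test solution: technical active ingredient in acetone/water (50:50) containing 0.5% Tween 20, applied as an aqueous spray to 8-day-old plants. Evaluation at 13 days, 0–5 damage scale.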

[8] = test system: Setaria faberi; assay: as above; design: key: 0 = no damage to plant, 5 = total damage to plant; details: Application post-emergence, rate 1000 g/ha, evaluated after 13 days
Procedure, shortened: as §2

[9] = test system: Abutilon theophrasti; assay: as above; design: key: 0 = no damage to plant, 5 = total damage to plant; details: Application post-emergence, rate 1000 g/ha, evaluated after 13 days
Procedure, shortened: as §2

[10] = test system: Echinochloa crus-galli; assay: as above; design: key: 0 = no damage to plant, 5 = total damage to plant; details: Application post-emergence, rate 1000 g/ha, evaluated after 13 days
Procedure, shortened: as §2

[11] = test system: zea mays; assay: as above; design: key: 0 = no damage to plant, 5 = total damage to plant; details: Application post-emergence, rate 1000 g/ha, evaluated after 13 days
Procedure, shortened: as §2

[12] = test system: Alopecurus myosuroides; assay: as above; design: key: 0 = no damage to plant, 5 = total damage to plant; details: Application post-emergence, rate 1000 g/ha, evaluated after 13 days
Procedure, shortened: as §2

Row | Structure (SMILES) | AMARE damage score, application pre-emergence [1] | SETFA damage score, application pre-emergence [2] | ABUTH damage score, application pre-emergence [3] | ECHCG damage score, application pre-emergence [4] | ZEAMX damage score, application pre-emergence [5] | ALOMY damage score, application pre-emergence [6] | AMARE herbicidal damage score [7] | SETFA herbicidal damage score [8] | ABUTH herbicidal damage score [9] | ECHCG herbicidal damage score [10] | ZEAMX herbicidal damage score [11] | ALOMY herbicidal damage score [12]
1 | COC1=C(C)C(O)N(c2cc(C(C)(F)F)c(-c3ccc(C)c(F)c3)nn2)C1=O (stereo not drawn) [BI20] | 3 | 1 | 0 | 1 | 1 | 2 | 5 | 4 | 5 | 3 | 1 | 2
2 | COC1=C(OC)C(O)N(c2ccc(C(F)(F)F)nn2)C1=O (stereo not drawn) [BK2] | 0 | 0 | 0 | 0 | 0 | 0 | 1 | 1 | 1 | 1 | 0 | 1
3 | CC1=C(Cl)C(=O)N(c2cc(C)ccn2)C1O (stereo not drawn) [AF41] | 5 | 4 | 5 | 4 | 3 | 4 | 5 | 5 | 5 | 5 | 4 | 5
4 | COc1ccc(N2C(=O)C(Cl)=C(C)C2O)nn1 (stereo not drawn) [BF8] | 1 | 3 | 5 | 4 | 0 | 2 | 5 | 5 | 5 | 5 | 1 | 4
5 | CC#Cc1nnc(N2C(=O)C(OC)=C(C)C2O)cc1C(C)(C)F (stereo not drawn) [BI12] | 5 | 5 | 4 | 4 | 3 | 2 | 5 | 5 | 5 | 5 | 4 | 4
6 | CC1=C(Cl)C(=O)N(c2cc(N(C)C)ncn2)C1O (stereo not drawn) [CF20] | 3 | 1 | 0 | 3 | 2 | 1 | 5 | 5 | 4 | 4 | 0 | 4
7 | CCC1=C(Br)C(=O)N(c2cc(C(C)(C)C#N)ncn2)C1O (stereo not drawn) [CG2] | 4 | 3 | 5 | 4 | 2 | 2 | 5 | 5 | 5 | 5 | 5 | 5
8 | COC1=C(C)C(O)N(c2cc(C)c(C(=O)NC3(C#N)CC3)cn2)C1=O (stereo not drawn) [AI34] | 4 | 3 | 1 | 4 | 0 | 3 | 5 | 5 | 5 | 4 | 3 | 4
9 | CCN(CC)C(=O)c1cnc(N2C(=O)C(OC)=C(C)C2O)cc1C(F)(F)F (stereo not drawn) [AI9] | 5 | 4 | 5 | 5 | 3 | 4 | 5 | 5 | 5 | 5 | 4 | 5
10 | COC1=C(C)C(O)N(c2cc(C(C)(C)C)c(N3CC(F)(F)C3)nn2)C1=O (stereo not drawn) [BI31] | 5 | 5 | 5 | 4 | 3 | 4 | 5 | 5 | 5 | 5 | 4 | 5
11 | COC1=C(C)C(O)N(c2cc(C(C)(C)F)c(Cl)nn2)C1=O (stereo not drawn) [BI14] | 5 | 5 | 3 | 4 | 3 | 3 | 5 | 5 | 5 | 5 | 4 | 5
12 | CC1=C(Cl)C(=O)N(c2cc(C(F)(F)F)c(Cl)cn2)C1O (stereo not drawn) [AF58] | 5 | 3 | 2 | 4 | 0 | 3 | 5 | 5 | 5 | 5 | 3 | 4
